# Reference: patent US8445522B2, “Substituted 2-(4-pyridyl)benzoxazoles, and compositions thereof, for use in arthropod pest control” (Sumitomo Chemical Company, Limited, priority 2009, dated 2013)
# Read-outs that look alike come from different tables or passages of the source.
# What was measured:
# Assay type in all cases: in vivo
# [1] = tested on: cotton aphids; test: Test Example 3: plant foot irrigation of cucumber seedling in plastic cup, cotton aphids inoculated after seven days; settings: 144 h; 500 ppm, 5 ml plant foot irrigation, plastic cup; aphids inoculated after seven days at 25° C., counted six days after; read-out: Control value
# Procedure: (§1) The formulations were diluted with water so that the concentration of the active ingredient became 500 ppm and thus test diluents were prepared. On the other hand, a plant foot of cucumber seedling (second true leaf development stage) planted in a plastic cup was irrigated with any one of diluents (5 ml). The seedling was kept in a green house of 25° C. for seven days. The cucumber leaves were inoculated with 30 cotton aphids (all stages) and kept in the green house for further six days. Thereafter, the number of survived cotton aphids parasitic on the cucumber leaves was counted, and the control value was calculated by the following equation. Control value(%)={1−(Cb×Tai)/(Cai×Tb)}×100 wherein each character represents the following meaning: Cb: number of insects in non-treated section before treatment Cai: number of insects in non-treated section during observation Tb: number of insects in treated section before treatment Tai: number of insects in treated section during observation
# [2] = tested on: rice brown planthopper; test: Test Example 6: plant foot irrigation of rice plant seedling, rice brown planthopper released after seven days; settings: Nilaparvata lugens, 144 h, read-out: Control value
# Procedure: The formulations were diluted with water so that the concentration of the active ingredient became 500 ppm and thus test diluents were prepared. On the other hand, a plant foot of rice plant seedling (two weeks after seeding, second leaf development stage) planted in a plastic cup was irrigated with any one of diluents (5 ml). The seedling was kept in a green house of 25° C. for seven days. Thirty first-instars of rice brown planthopper were released to the seedling, which was kept in the green house at 25 C for six days. Thereafter, the number of survived rice brown planthopper parasitic on rice plant leaves was counted, and the control value was calculated by the following equation. Control value(%)={1−(Cb×Tai)/(Cai×Tb)}×100 wherein each character represents the following meaning: Cb: number of insects in non-treated section before treatment Cai: number of insects in non-treated section during observation Tb: number of insects in treated section before treatment Tai: number of insects in treated section during observation
# [3] = tested on: cotton aphids; test: Test Example 2: plant foot irrigation of cucumber seedling in urethane mat, cotton aphids inoculated one day after treatment; settings: 168 h, read-out: Control value
# Procedure: as §1, with “urethane mat” for “plastic cup”, “One day after the treatment, the” for “The seedling was kept in a green house of 25° C. for seven days. The”, “stages). Further seven days after,” for “stages) and kept in the green house for further six days. Thereafter,”
# [4] = tested on: halymorpha halys; test: Test Example 7: treated tissue paper with budding soybeans, halymorpha halys mortality; settings: 168 h
# Procedure: Formulations were prepared by the method described in Formulation Example 1 with respect to each of the active compound 13, the active compound 15, the active compound 18, the active compound 35, the active compound 37, the active compound 44, the active compound 65, the active compound 68 and the active compound 82. The formulations were diluted with water so that the concentration of the active ingredient became 100 ppm and thus test diluents were prepared.
# On the other hand, a tissue paper placed in an aluminum cup was irrigated with any one of the above-mentioned diluents (5 ml). The tissue paper was placed in a polyethylene cup together with three budding soybeans. In the polyethylene cup, ten halymorpha halys were released, and the polyethylene cup was lidded by a polyethylene lid. Seven days after the releasing of the insects, the number of survived insects was counted, and the mortality was calculated by the following equation. Mortality(%)=(number of dead insects/number of insects to be tested)×100
# [5] = tested on: rice brown planthopper; test: Test Example 5: test diluent scattered on rice plant seedling, rice brown planthopper released; settings: Nilaparvata lugens, 144 h; 500 ppm, 10 ml scattered on rice plant seedling, 30 first-instars released, counted after six days at 25° C.; read-out: Control value
# Procedure: The formulations were diluted with water so that the concentration of the active ingredient became 500 ppm and thus test diluents were prepared. On the other hand, to a rice plant seedling (two weeks after seeding, second leaf development stage) planted in a plastic cup, any one of the diluents (10 ml) was scattered. After the drug solution scattered on the rice plant was dried, 30 first-instars of rice brown planthopper were released on the rice plant, which was kept in the green house at 25° C. for six days. Thereafter, the number of rice brown planthopper parasitic on rice plant was counted and the control value was calculated by the following equation. Control value(%)={1−(Cb×Tai)/(Cai×Tb)}×100 wherein each character represents the following meaning: Cb: number of insects in non-treated section before treatment Cai: number of insects in non-treated section during observation Tb: number of insects in treated section before treatment Tai: number of insects in treated section during observation
# [6] = tested on: tobacco whitefly; test: Test Example 4: test diluent scattered on tomato seedling with hatched tobacco whitefly larvae; settings: 168 h; 500 ppm, 10 ml/cup scattered on tomato seedling at larvae stage, counted after seven days at 25° C.; read-out: Control value
# Procedure: The formulations were diluted with water so that the concentration of the active ingredient became 500 ppm and thus test diluents were prepared. On the other hand, by releasing tobacco whitefly imagos to a tomato seedling planted in a plastic cup to allow them to lay eggs for about 24 hours. The tomato seedling was kept in a green house for eight days. At the stage in which larvae hatched from the laid eggs, any of the test diluents was scattered at the rate of 10 ml/cup. The tomato seedling was kept in the greenhouse at 25° C. for seven days. The number of survived larvae on tomato leaves was counted, and the control value was calculated by the following equation. Control value(%)={1−(Cb×Tai)/(Cai×Tb)}×100 wherein each character represents the following meaning: Cb: number of insects in non-treated section before treatment Cai: number of insects in non-treated section during observation Tb: number of insects in treated section before treatment Tai: number of insects in treated section during observation
# [7] = tested on: cotton aphids (Aphis gossypii Glover); test: Test Example 1: test diluent scattered on cucumber seedling inoculated with cotton aphids; settings: 120 h, 500 ppm active ingredient, 10 ml scattered on cucumber seedling, counted five days after scattering, read-out: Control value
# Procedure: The formulations were diluted with water so that the concentration of the active ingredient became 500 ppm and thus test diluents were prepared. On the other hand, a cucumber seedling (second true leaf development stage) planted in a plastic cup was inoculated with about 30 cotton aphids (Aphis gossypii Glover) and allowed to stand for one day. To the seedling, any one of the diluents (10 ml) was scattered. Five days after the scattering, the number of survived cotton aphids parasitic on the cucumber leaves was counted, and the control value was calculated by the following equation. Control value(%)={1−(Cb×Tai)/(Cai×Tb)}×100 wherein each character represents the following meaning: Cb: the number of insects in non-treated section before treatment Cai: the number of insects in non-treated section during observation Tb: the number of insects in treated section before treatment Tai: the number of insects in treated section during observation
# [8] = 500 ppm, 5 ml plant foot irrigation of rice seedling, first-instars released after seven days, counted six days after
# [9] = 500 ppm, 5 ml plant foot irrigation, urethane mat, aphids inoculated one day after treatment, counted seven days after
# [10] = 100 ppm, 5 ml on tissue paper with budding soybeans, ten insects, counted seven days after releasing, read-out: Mortality
compound,measurement,setting,value
"FC(F)(F)c1cnc2oc(-c3ccncc3C(F)(F)F)nc2c1 [Active Compound 144, 6-trifluoromethyl-2-[3-(trifluoromethyl)pyridin-4-yl]-oxazolo[5,4-b]pyridine]",pest or weed control at 500 ppm,[1],≥ 90%
"COc1cnccc1-c1nc2cc(C(F)(F)F)cnc2o1 [Active Compound 145, 2-(3-methoxypyridin-4-yl)-6-(trifluoromethyl)oxazolo[5,4-b]pyridine]",pest or weed control at 500 ppm,[1],≥ 90%
"[O-][n+]1ccc(-c2nc3cc(C(F)(F)F)ccc3o2)cc1 [active compound 14, 4-[5-(trifluoromethyl)benzoxazole-2-yl]pyridine N-oxide]",pest or weed control at 500 ppm,[2]; [8],≥ 90%
same,pest or weed control at 500 ppm,[3]; [9],≥ 90%
same,pest or weed control at 500 ppm,[1],≥ 90%
"FC(F)(F)c1ccc2nc(-c3ccncc3)oc2c1 [active compound 15, 2-(pyridin-4-yl)-6-(trifluoromethyl)benzoxazole]",mortality at 100 ppm,[4]; [10],≥ 80%
"FC(F)(F)c1ccc2oc(-c3ccncc3Cl)nc2c1 [active compound 18, 2-(3-chloropyridin-4-yl)-5-(trifluoromethyl)benzoxazole]",pest or weed control at 500 ppm,[2],≥ 90%
same,pest or weed control at 500 ppm,[3],≥ 90%
same,mortality at 100 ppm,[4],≥ 80%
"[O-][n+]1ccc(-c2nc3cc(C(F)(F)F)ccc3o2)c(Cl)c1 [active compound 19, 3-chloro-4-[5-(trifluoromethyl)benzoxazole-2-yl]pyridine N-oxide]",pest or weed control at 500 ppm,[3]; [9],≥ 90%
same,pest or weed control at 500 ppm,[1],≥ 90%
"Cc1c[n+]([O-])ccc1-c1nc2cc(C(F)(F)F)ccc2o1 [active compound 24, 3-methyl-4-[5-(trifluoromethyl)benzoxazole-2-yl]pyridine N-oxide]",pest or weed control at 500 ppm,[2]; [8],≥ 90%
same,pest or weed control at 500 ppm,[1],≥ 90%
"Fc1cnccc1-c1nc2cc(C(F)(F)F)ccc2o1 [active compound 25, 2-(3-fluoropyridin-4-yl)-5-(trifluoromethyl)benzoxazole]",pest or weed control at 500 ppm,[2]; [8],≥ 90%
same,pest or weed control at 500 ppm,[1],≥ 90%
"[O-][n+]1ccc(-c2nc3cc(C(F)(F)F)ccc3o2)c(I)c1 [active compound 30, 3-iode-4-[5-(trifluoromethyl)benzoxazole-2-yl]pyridine N-oxide]",pest or weed control at 500 ppm,[2]; [8],≥ 90%
same,pest or weed control at 500 ppm,[3]; [9],≥ 90%
same,pest or weed control at 500 ppm,[1],≥ 90%
"CC(C)(C)Sc1cnccc1-c1nc2cc(C(F)(F)F)ccc2o1 [active compound 44, 2-(3-tert-butylthiopyridin-4-yl)-5-(trifluoromethyl)benzoxazole]",pest or weed control at 500 ppm,[2],≥ 90%
same,mortality at 100 ppm,[4],≥ 80%
"FC(F)(F)c1ccc2oc(-c3ccncc3-n3cccn3)nc2c1 [active compound 58, 2-[3-(pyrazole-1-yl)pyridin-4-yl]-5-(trifluoromethyl)benzoxazole]",pest or weed control at 500 ppm,[2]; [8],≥ 90%
same,pest or weed control at 500 ppm,[3]; [9],≥ 90%
same,pest or weed control at 500 ppm,[1],≥ 90%
same,pest or weed control at 500 ppm,[5],≥ 90%
"FC(F)(F)c1ccc2oc(-c3ccncc3-n3cncn3)nc2c1 [active compound 63, 2-[3-(1,2,4-triazole-1-yl)pyridin-4-yl]-5-(trifluoromethyl)benzoxazole]",pest or weed control at 500 ppm,[3]; [9],≥ 90%
same,pest or weed control at 500 ppm,[6],≥ 90%
same,pest or weed control at 500 ppm,[1],≥ 90%
"FC(F)(F)C(F)(F)c1ccc2oc(-c3ccncc3)nc2c1 [active compound 65, 5-(pentafluoroethyl)-2-(pyridin-4-yl)-benzoxazole]",mortality at 100 ppm,[4]; [10],≥ 80%
"FC(F)(F)C(F)(c1ccc2oc(-c3ccncc3Cl)nc2c1)C(F)(F)F [active compound 68, 2-(3-chloropyridin-4-yl)-5-(heptafluoroisopropyl)benzoxazole]",mortality at 100 ppm,[4]; [10],≥ 80%
same,pest or weed control at 500 ppm,[5],≥ 90%
"CC(=O)Nc1cnccc1-c1nc2cc(C(F)(F)F)ccc2o1 [active compound 82, N-[4-(5-trifluoromethylbenzoxazole-2-yl)pyridin-3-yl]acetamide]",mortality at 100 ppm,[4]; [10],≥ 80%
"COc1cnccc1-c1nc2cc3c(cc2o1)C(F)(F)OC3(F)F [active compound 88, 5,5,7,7-tetrafluoro-2-(3-methoxypyridin-4-yl)-5,7-dihydro-furo[3′,4′:4,5]benzo[1,2-d]oxazole]",pest or weed control at 500 ppm,[3]; [9],≥ 90%
same,pest or weed control at 500 ppm,[6],≥ 90%
same,pest or weed control at 500 ppm,[7],≥ 90%
same,pest or weed control at 500 ppm,[5],≥ 90%
"CCc1cnccc1-c1nc2cc3c(cc2o1)C(F)(F)OC3(F)F [active compound 98, 2-(3-ethylpyridin-4-yl)-5,5,7,7-tetrafluoro-5,7-dihydro-furo[3′,4′:4,5]benzo[1,2-d]oxazole]",pest or weed control at 500 ppm,[2]; [8],≥ 90%
same,pest or weed control at 500 ppm,[6],≥ 90%
same,pest or weed control at 500 ppm,[7],≥ 90%
same,pest or weed control at 500 ppm,[5],≥ 90%
"FC(F)(F)c1ccc2oc(-c3ccncc3C(F)(F)F)nc2c1 [active compound 125, 5-trifluoromethyl-2-[3-(trifluoromethyl)pyridin-4-yl]-benzoxazole]",pest or weed control at 500 ppm,[2]; [8],≥ 90%
same,pest or weed control at 500 ppm,[3]; [9],≥ 90%
same,pest or weed control at 500 ppm,[6],≥ 90%
same,pest or weed control at 500 ppm,[1],≥ 90%
same,pest or weed control at 500 ppm,[7],≥ 90%
"CS(=O)(=O)c1cnccc1-c1nc2cc(C(F)(F)F)ccc2o1 [active compound 135, 2-[3-(methanesulfonyl)pyridin-4-yl]-5-(trifluoromethyl)benzoxazole]",pest or weed control at 500 ppm,[1],≥ 90%
